Patent US20260272878A1, “ADAR1 INHIBITORS AND USES THEREOF” (THE WISTAR INSTITUTE OF ANATOMY AND BIOLOGY, priority 2023, published 2026)
“Also recorded” adds a separate entry of the source.

How the values were obtained:
ADAR1p110 = target: T1, ADAR1p110 (Homo sapiens, UniProt P55265); assay: In vitro editing assay with recombinant ADAR1p110 and synthetic dsRNA; type: biochemical; details: for IC50: ADAR1p110, dose-dependent in vitro editing assay; for Inhibition of ADAR1p110 editing: in vitro editing assay, result in words
T1 construct: HAT (N); made in house; host or cells: Sf9 cells (baculovirus)
T1 sequence (P55265 1-931 isoform P55265-5): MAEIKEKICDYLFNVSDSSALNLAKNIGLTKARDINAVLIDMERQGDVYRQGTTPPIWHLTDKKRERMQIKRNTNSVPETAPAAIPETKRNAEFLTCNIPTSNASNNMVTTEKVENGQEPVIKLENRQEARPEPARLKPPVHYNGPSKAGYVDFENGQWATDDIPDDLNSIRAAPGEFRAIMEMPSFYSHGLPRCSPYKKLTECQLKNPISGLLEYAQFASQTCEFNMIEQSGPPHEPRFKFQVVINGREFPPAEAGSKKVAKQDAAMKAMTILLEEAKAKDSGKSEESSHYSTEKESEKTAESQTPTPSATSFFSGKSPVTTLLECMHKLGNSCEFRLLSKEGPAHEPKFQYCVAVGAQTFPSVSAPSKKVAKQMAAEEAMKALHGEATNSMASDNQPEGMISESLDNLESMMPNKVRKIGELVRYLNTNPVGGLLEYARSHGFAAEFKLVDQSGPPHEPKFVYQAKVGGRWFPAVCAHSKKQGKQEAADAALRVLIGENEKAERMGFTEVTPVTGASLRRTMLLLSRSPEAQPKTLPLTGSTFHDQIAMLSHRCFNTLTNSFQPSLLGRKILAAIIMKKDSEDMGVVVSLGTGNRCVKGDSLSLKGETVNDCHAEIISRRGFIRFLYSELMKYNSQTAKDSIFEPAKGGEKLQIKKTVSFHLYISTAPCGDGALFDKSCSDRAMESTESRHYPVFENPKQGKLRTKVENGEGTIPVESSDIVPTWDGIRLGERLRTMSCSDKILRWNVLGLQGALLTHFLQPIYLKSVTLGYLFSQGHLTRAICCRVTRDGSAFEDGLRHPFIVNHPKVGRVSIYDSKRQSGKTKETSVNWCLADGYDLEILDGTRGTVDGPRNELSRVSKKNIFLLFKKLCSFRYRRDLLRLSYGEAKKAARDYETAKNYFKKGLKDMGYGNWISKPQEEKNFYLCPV
Procedure: In vitro editing assay using purified HAT-ADAR1p110 and a synthetic dsRNA was conducted at varying concentrations of ADAR1i-124. The editing efficiency was determined by the guanosine peak replacing the adenosine peak of cDNA sequencing chromatograms.
The in vitro editing reaction mixture, containing 5 nM of telomere RNA:RNA duplex substrates and 75 nM of HAT-ADAR1p110-WT, FLAG-ADAR1p110-WT, or HA-ADAR1p110-EAA protein, was incubated at 37° C. for 2 h in in vitro editing buffer I (20 mM HEPES-KOH PH 7.5, 100 mM NaCl, 0.01% NP-40, 5% glycerol, 1 mM DTT). For editing of RNA:DNA hybrid substrates, in vitro editing buffer II (20 mM HEPES-KOH PH 7.5, 20 mM NaCl, 0.01% NP-40, 5% glycerol, 1 mM DTT) was used. Edited RNA or DNA strands were purified using Dynabeads MyOne Streptavidin C1 (Thermo Fisher Scientific). To remove opposite RNA or DNA strands, rNase H (NEB) or TURBO dNase (Thermo Fisher Scientific) was used, respectively. For sequencing of edited substrates, reverse transcription-PCR was carried out for RNA strands, while PCR was carried out for DNA strands. RT reactions were carried out using SuperScript III Reverse Transcriptase (Thermo Fisher Scientific), and PCR reactions were performed using Platinum Taq DNA polymerase (Thermo Fisher Scientific). PCR products were sequenced using a specific sequencing primer, and the ratio of A and G peaks in the chromatograms were analyzed by CodonCode Aligner (CodonCode Corporation).
In a previous study, the 54 compounds identified in the high-throughput screen were further tested in the in vitro editing assay described in Examples 2 and 3. The in vitro editing reaction mixture, containing 5 nM of telomere RNA:RNA duplex substrates and 75 nM of HAT-ADAR1p110-WT, FLAG-ADAR1p110-WT, or HA-ADAR1p110-EAA protein, was incubated at 37° C. for 2 h in in vitro editing buffer I (20 mM HEPES-KOH PH 7.5, 100 mM NaCl, 0.01% NP-40, 5% glycerol, 1 mM DTT) with 10 microM test compound. For editing of RNA:DNA hybrid substrates, in vitro editing buffer II (20 mM HEPES-KOH PH 7.5, 20 mM NaCl, 0.01% NP-40, 5% glycerol, 1 mM DTT) was used. Edited RNA or DNA strands were purified using Dynabeads MyOne Streptavidin C1 (Thermo Fisher Scientific). To remove opposite RNA or DNA strands, Rnase H (NEB) or TuRBO Dnase (Thermo Fisher Scientific) was used, respectively. For sequencing of edited substrates, reverse transcription-PCR was carried out for RNA strands, while PCR was carried out for DNA strands. RT reactions were carried out using SuperScript III
Reverse Transcriptase (Thermo Fisher Scientific), and PCR reactions were performed using Platinum Taq DNA polymerase (Thermo Fisher Scientific). PCR products were sequenced using a specific sequencing primer, and the ratio of A and G peaks in the chromatograms were analyzed by CodonCode Aligner (CodonCode Corporation).

[1] = system: HeLa non-ALT cancer cells; assay: Cancer cell killing / viability (Apo Tox-Glo), HeLa; type: cell-based, human; details: for Killing of HeLa cells: result in words
Procedure: FIGS. 8A-8C show analysis of ADAR1i-124 effects in cancer cells. […] Viability was examined using the Apo Tox-Glo assay system. Control, 0.3% DMSO. Data: mean±SD (n=3). Significant differences identified by two-tailed Student's t-tests: *P<0.05, n.s., not significant. (FIG. 8B) Western blotting analysis of HeLa cells treated with ADAR1i-124 (10 μM).
FIGS. 9A-9C show dose-dependent killing of cancer cells and activation of IFN signaling. […] YUMM1.7 (FIG. 9B) and HGS2 cells (FIG. 9C) were treated with ADAR1i-124 at 10 μM (12 hrs). RNA samples were analyzed by qRT-PCR to monitor ISG expression levels. Data: mean±SD (n=3). Significant differences were identified by two-tailed Student's t-tests: ***P<0.001.
Dose-dependent selective killing of telomerase reactivated cancer cells was determined (FIG. 9A).

| IC50 (ADAR1p110) | SMILES | Inhibition of ADAR1p110 editing (ADAR1p110) | Substrate preference of editing inhibition (matched vs A-C mismatched dsRNA) (ADAR1p110; recombinant ADAR1p110, matched and mismatched dsRNA substrates, 10 microM test compound) | Killing of HeLa cells [1] | Viability of HeLa cells ([1]; 10 μM, Apo Tox-Glo, control 0.3% DMSO) | IC50 ([1]; Homo sapiens, HeLa, read-out: IC50 for selective killing of HeLa cells) |
| --- | --- | --- | --- | --- | --- | --- |
| 10 to 20 µM | N#Cc1ccc(NC(=O)c2sc3ccccc3c2Cl)cc1 [ADAR1i-13, 3-chloro-N-(4-cyanophenyl)-1-benzothiophene-2-carboxamide] | inhibited ADAR1p110 editing of all three substrates tested, including the DNA:RNA hybrid substrate | preferentially inhibited matched adenosines | killed selectively |  |  |
| 10 to 20 µM | N#Cc1ccccc1NC(=O)c1sc2ccccc2c1Cl [ADAR1i-120] | ADAR1 inhibitory activities |  | killed selectively |  |  |

| SMILES | IC50 (ADAR1p110) | Inhibition of ADAR1p110 editing (ADAR1p110) | Substrate preference of editing inhibition (matched vs A-C mismatched dsRNA) (ADAR1p110; recombinant ADAR1p110, matched and mismatched dsRNA substrates, 10 microM test compound) | Killing of HeLa cells [1] | Viability of HeLa cells ([1]; 10 μM, Apo Tox-Glo, control 0.3% DMSO) | IC50 ([1]; Homo sapiens, HeLa, read-out: IC50 for selective killing of HeLa cells) |
| --- | --- | --- | --- | --- | --- | --- |
| N#Cc1ccc(NC(=O)c2c(Cl)c3ccccc3n2CO)cc1 [ADAR1i-124] | 10 to 20 µM | ADAR1 inhibitory activities; also recorded: inhibited both ADAR1p150 and ADAR1p-110 |  | killed selectively; also recorded: dose-dependently killed | selectively reduced viability | ~0.4 µM |
